Laboratory results reported in ChEMBL document CHEMBL6120982, “Cell-penetrating anti-sense peptide nucleic acids targeting sulfatase 2 inhibit adipogenesis in human mesenchymal stem cells” (Bioorg Med Chem, 2024).
Activity calls are given as the source filed them. No cut-off for these calls is given here.

Columns and labels:
Mesenchymal stem cells [1] = assay: Anti-adipogenic activity in insulin/dexamthasone/pioglitazone/IBMX differentiated human BMMSC cells assessed as downregulation of adiponectin protein secretion by ELISA; format: functional, cell-based
DNA [2] = assay: Binding affinity to N-terminal of 10-mer c-DNA (unknown origin) assessed as melting temperature at 4 uM by UV-Vis spectrophotometric analysis; format: nucleic-acid assay
Mesenchymal stem cells [3] = assay: Anti-adipogenic activity in insulin/dexamthasone/pioglitazone/IBMX differentiated human BMMSC cells assessed as decrease in number of intracellular lipid droplets by Oil red O staining based inverted microscopic analysis; format: functional, cell-based; conditions: dose 0.01-1 µM
DNA [4] = assay: Binding affinity to C-terminal of 10-mer c-DNA (unknown origin) assessed as melting temperature at 4 uM by UV-Vis spectrophotometric analysis; format: nucleic-acid assay
Mesenchymal stem cells [5] = assay: Anti-adipogenic activity in insulin/dexamthasone/pioglitazone/IBMX differentiated human BMMSC cells assessed as decrease in size of intracellular lipid droplets by Oil red O staining based inverted microscopic analysis; format: functional, cell-based; conditions: dose 0.01-1 µM
Mesenchymal stem cells [6] = assay: Effect on osteogenesis in ascorbic acid/dexamethasone/beta-glycerol phosphate differentiated human BMMSC cells; format: functional, cell-based
Mesenchymal stem cells [7] = assay: Inhibition of SULF2 mRNA expression in human BMMSC cells by RT-qPCR analysis; format: functional, cell-based; conditions: dose 0.01-1 µM
Mesenchymal stem cells [8] = assay: Cytotoxicity against human BMMSC cells assessed as effect on cell viability upto 1 uM incubated for 24 hrs by CCK8 assay; format: toxicity, cell-based
Mesenchymal stem cells [9] = assay: Inhibition of SULF2 mRNA expression in human BMMSC cells at 0.1 uM by RT-qPCR analysis; format: functional, cell-based
Mesenchymal stem cells [10] = assay: Anti-adipogenic activity in insulin/dexamthasone/pioglitazone/IBMX differentiated human BMMSC cells assessed as downregulation of adiponectin protein secretion at 1 uM by ELISA; format: functional, cell-based
[11] = Drug penetration in human BMMSC cells assessed as green fluorescence signal at 0.1 uM incubated for 24 hrs by DAPI staining based confocal microscopic analysis; format: ADME, cell-based; conditions: mesenchymal stem cells
DNA [12] = assay: Binding affinity to c-DNA (unknown origin) with mismatch bases assessed as increase in melting temperature by UV-vis spectrophotometric analysis; format: nucleic-acid assay
DNA [13] = assay: Binding affinity to 10-mer DNA (unknown origin) assessed as melting temperature at 4 uM by UV-Vis spectrophotometric analysis; format: nucleic-acid assay

SMILES	Activity (Mesenchymal stem cells [1])	IC50 (Mesenchymal stem cells [1]) [nM]	Tm (DNA [2]) [°C]	Activity (Mesenchymal stem cells [3])	Tm (DNA [4]) [°C]	Activity (Mesenchymal stem cells [5])	Activity (Mesenchymal stem cells [6])	inhibition (Mesenchymal stem cells [7])	Activity (Mesenchymal stem cells [8])	inhibition (Mesenchymal stem cells [9])	Activity (Mesenchymal stem cells [10])	Drug uptake [11]	Activity (DNA [12])	Tm (DNA [13]) [°C]
Cc1cn(CC(=O)N(CCNC(=O)CN(CCNC(=O)CN(CCNC(=O)CN(CCNC(=O)CN(CCNC(=O)CN(CCNC(=O)CN(CCNC(=O)CN(CCNC(=O)CN(CCNC(=O)CN(CCNC(=O)CN(CCNC(=O)OCCC2c3ccccc3-c3ccccc32)C(=O)Cn2cc(C)c(=O)[nH]c2=O)C(=O)Cn2cnc3c(=O)[nH]c(N)nc32)C(=O)Cn2cnc3c(=O)[nH]c(N)nc32)C(=O)Cn2cnc3c(N)nc(NCCCCCN)nc32)C(=O)Cn2cnc3c(=O)[nH]c(N)nc32)C(=O)Cn2cnc3c(=O)[nH]c(N)nc32)C(=O)Cn2cnc3c(N)nc(NCCCCCN)nc32)C(=O)CN2C=NC3C(=O)NC(N)=NC32)C(=O)Cn2ccc(N)nc2=O)C(=O)Cn2cnc3c(=O)[nH]c(NCCCCCCN)nc32)CC(=O)NCCN(CC(=O)NCCN(CC(=O)NCCN(CC(=O)NCCN(CC(=O)NCCN(CC(=O)NCCN(CC(=O)NCCN(CC(=O)NCCN(CC(=O)NCCN(N)C(=O)Cn2cnc3c(=O)[nH]c(N)nc32)C(=O)Cn2cnc3c(N)nc(NCCCCCN)nc32)C(=O)Cn2ccc(N)nc2=O)C(=O)Cn2cnc3c(N)ncnc32)C(=O)Cn2cnc3c(N)ncnc32)C(=O)Cn2cnc3c(=O)[nH]c(NCCCCCCN)nc32)C(=O)Cn2cnc3c(=O)[nH]c(N)nc32)C(=O)Cn2cnc3c(N)ncnc32)C(=O)Cn2cnc3c(=O)[nH]c(N)nc32)c(=O)[nH]c1=O (centres undefined)	Dose-dependent-effect	280	68.1	Dose-dependent-effect	64	Dose-dependent-effect	inactive	Dose-dependent-effect	Non-toxic	Active	Active			
O=C(O)c1ccc2c(c1)C(=O)OC21c2ccc(O)cc2Oc2cc(O)ccc21												Active		
NCCCCCNc1nc(N)c2ncn(CC(=O)N(CCNC(=O)CN(CCNC(=O)CN(CCNC(=O)CN(CCN)C(=O)Cn3cnc4c(N)ncnc43)C(=O)Cn3cnc4c(=O)[nH]c(N)nc43)C(=O)Cn3ccc(N)nc3=O)CC(=O)NCCN(CC(=O)NCCN(CC(=O)NCCN(CC(=O)NCCN(CC(=O)NCCN(CC(=O)NCCN(CC(N)=O)C(=O)Cn3cnc4c(N)ncnc43)C(=O)Cn3ccc(N)nc3=O)C(=O)Cn3cnc4c(N)nc(NCCCCCN)nc43)C(=O)Cn3cnc4c(=O)[nH]c(N)nc43)C(=O)Cn3cnc4c(N)nc(NCCCCCN)nc43)C(=O)Cn3ccc(N)nc3=O)c2n1													inactive	73.6
Cc1cn(CC(=O)N(CCNC(=O)CN(CCNC(=O)CN(CCNC(=O)CN(CCNC(=O)CN(CCNC(=O)CN(CCNC(=O)CN(CCNC(=O)CN(CCNC(=O)CN(CCNC(=O)CN(CCNC(=O)CN(CCNC(=O)CN(CCNC(=O)CN(CCNC(=O)CN(CCNC(=O)CN(CCNC(=O)CN(CCNC(=O)CN(CCNC(=O)OCCC2c3ccccc3-c3ccccc32)C(=O)Cn2cnc3c(=O)[nH]c(N)nc32)C(=O)Cn2cnc3c(=O)[nH]c(NCCCCCCN)nc32)C(=O)Cn2cnc3c(=O)[nH]c(N)nc32)C(=O)Cn2ccc(N)nc2=O)C(=O)Cn2cnc3c(N)nc(NCCCCCN)nc32)C(=O)Cn2cnc3c(=O)[nH]c(N)nc32)C(=O)Cn2ccc(N)nc2=O)C(=O)Cn2cnc3c(N)ncnc32)C(=O)Cn2ccc(N)nc2=O)C(=O)Cn2cnc3c(N)nc(NCCCCCN)nc32)C(=O)Cn2cc(C)c(=O)[nH]c2=O)C(=O)Cn2cnc3c(=O)[nH]c(N)nc32)C(=O)Cn2cnc3c(=O)[nH]c(N)nc32)C(=O)Cn2cnc3c(=O)[nH]c(NCCCCCCN)nc32)C(=O)Cn2cc(C)c(=O)[nH]c2=O)C(=O)Cn2cnc3c(=O)[nH]c(N)nc32)CC(N)=O)c(=O)[nH]c1=O		> 1000	83.5		75.5		inactive	Dose-dependent-effect	Non-toxic	Active	Active			
Cc1cn(CC(=O)N(CCNC(=O)CN(CCNC(=O)CN(CCNC(=O)CN(CCNC(=O)CN(CCNC(=O)CN(CCNC(=O)CN(CCNC(=O)CN(CCNC(=O)CN(CCNC(=O)CN(CCNC(=O)CN(CCNC(=O)CN(CCNC(=O)CN(CCNC(=O)CN(CCNC(=O)CN(CCNC(=O)CN(CCNC(=O)CN(CCNC(=O)CN(CCNC(=O)CN(CCNC(=O)OCCC2c3ccccc3-c3ccccc32)C(=O)Cn2ccc(N)nc2=O)C(=O)Cn2cc(C)c(=O)[nH]c2=O)C(=O)Cn2cc(C)c(=O)[nH]c2=O)C(=O)Cn2cc3cc(COCCN)[nH]c3nc2=O)C(=O)Cn2cc(C)c(=O)[nH]c2=O)C(=O)Cn2cc(C)c(=O)[nH]c2=O)C(=O)Cn2cc(C)c(=O)[nH]c2=O)C(=O)Cn2cc(C)c(=O)[nH]c2=O)C(=O)Cn2cc(C)c(=O)[nH]c2=O)C(=O)Cn2cc(C)c(=O)[nH]c2=O)C(=O)Cn2cc(C)c(=O)[nH]c2=O)C(=O)Cn2cnc3c(=O)[nH]c(NCCCCCCN)nc32)C(=O)Cn2ccc(N)nc2=O)C(=O)Cn2cc(C)c(=O)[nH]c2=O)C(=O)Cn2cnc3c(=O)[nH]c(N)nc32)C(=O)Cn2cnc3c(N)nc(NCCCCCN)nc32)C(=O)Cn2cc(C)c(=O)[nH]c2=O)C(=O)Cn2ccc(N)nc2=O)CC(=O)NCCN(CC(N)=O)C(=O)Cn2cnc3c(=O)[nH]c(NCCCCCCN)nc32)c(=O)[nH]c1=O		> 1000			70		inactive	Dose-dependent-effect	Non-toxic	Mild_effect	Active			
